Values after ≈ are worked out from the molar mass of the structure shown. Like-named read-outs stand apart in the source and are kept apart here.
How the values were obtained:
[1] = MTT cytotoxicity assay on Vero cells; assay type: cell-based; conditions: monkey
Description: (§1) Cells lines including human monocytic THP-1, murine macrophage RAW 264.7 and the Vero monkey kidney cell lines were obtained from the American Type Culture Collection (Rockville, MD, USA). They were maintained in DMEM supplemented with 10 % fetal calf serum (FCS) and 1 % penicillin/streptomycin/fongizone (PSF) under standard cell culture conditions at 37 °C and 5 % CO2 in a humidified environment.
(§2) The cytotoxicity of compounds was determined by the 3-[4,5-dimethylthiazol-2-yl]-2,5-diphenyltetrazolium (MTT) assay as previously described. The selectivity index (SI) values were calculated by dividing cytotoxicity LC50 values of normal Vero cells by the LC50 of cancer cells in the same units.

human monocytic THP-1 = experiment: MTT cytotoxicity assay on THP-1 cells; assay type: cell-based
Description: as §1, §2

[2] = test system: murine macrophage RAW 264.7; experiment: MTT cytotoxicity assay on RAW 264.7 cells; assay type: cell-based; conditions: Mus musculus
Description: as §1, §2

[3] = test system: nitric oxide production in LPS-stimulated RAW 264.7 macrophages; experiment: Nitric oxide production in LPS-activated RAW 264.7 macrophages (Griess reagent); assay type: cell-based, murine; conditions: 0.5 µg/mL compound, 1 µg/mL LPS, 24 h
Description: Fig. 1 Inhibitory activity of three limonoids isolated from Trichilia welwitschii on nitrix oxide production. The RAW 264.7 macrophages cells were seeded in 96 well-microtitre plates and were activated by incubation in medium containing 1 µg/mL LPS alone (control) or lipopolysaccharide with different concentrations of the samples dissolved in DMSO. Nitric oxide released from macrophages was determined by measuring the nitrite concentration in culture supernatant using the Griess reagent. The concentrations of nitrite were derived from regression analysis using serial dilutions of sodium nitrite as a standard. Percentage inhibition was calculated based on the ability of compounds to inhibit nitric oxide formation by cells compared with the control (cells in media without compounds), which was considered as 0 % inhibition.
The RAW 264.7 macrophages cells were seeded in 96 well-microtitre plates and were activated by incubation in medium containing 1 µg/mL LPS alone (control) or lipopolysaccharide with different concentrations of the samples dissolved in DMSO. […]
Nitric oxide released from macrophages was determined by measuring the nitrite concentration in culture supernatant using the Griess reagent. […] The absorbance of the resultant solutions was determined on a BioTek Synergy microplate reader after 10 min at 550 nm. […]

[4] = biological target: T1, acetylcholinesterase (AChE) enzyme from electric eels (Electrophorus electricus, UniProt O42275); experiment: biochemical; conditions: for inhibition at 6.25 µg/mL / inhibition at 12.5 µg/mL / inhibition at 25 µg/mL / inhibition at 50 µg/mL: read-out: % AChE inhibition; for IC50: read-out: AChE inhibition IC50 (converted)
T1 construct: purchased Sigma (Germany) type VI-S lyophilized powder (catalogue number not given)
T1 sequence (O42275 24-633): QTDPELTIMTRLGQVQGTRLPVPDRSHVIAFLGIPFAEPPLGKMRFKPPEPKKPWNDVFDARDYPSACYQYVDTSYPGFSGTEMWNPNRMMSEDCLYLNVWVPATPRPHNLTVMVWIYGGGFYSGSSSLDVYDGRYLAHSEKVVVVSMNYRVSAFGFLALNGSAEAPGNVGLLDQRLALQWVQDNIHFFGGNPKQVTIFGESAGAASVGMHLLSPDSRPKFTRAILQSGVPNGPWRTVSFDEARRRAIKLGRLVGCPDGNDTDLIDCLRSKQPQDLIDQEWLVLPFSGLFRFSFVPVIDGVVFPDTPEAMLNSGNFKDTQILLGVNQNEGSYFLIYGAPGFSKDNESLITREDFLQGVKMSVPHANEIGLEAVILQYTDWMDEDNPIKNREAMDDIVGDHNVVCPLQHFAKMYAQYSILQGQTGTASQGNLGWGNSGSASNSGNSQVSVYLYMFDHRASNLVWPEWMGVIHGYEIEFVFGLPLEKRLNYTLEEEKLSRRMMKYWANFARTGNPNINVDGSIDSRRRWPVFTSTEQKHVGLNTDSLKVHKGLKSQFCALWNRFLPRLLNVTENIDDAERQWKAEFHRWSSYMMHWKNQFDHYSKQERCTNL
Description: Inhibition of acetylcholinesterase activity was determined using Ellman’s colorimetric method with slight modifications. […] Then, AChE (0.2 U/mL) was added to the wells and the absorbance was determined spectrophotometrically (BioTek Synergy microplate reader) at 405 nm. Distilled water was used as negative control. […] The IC50 values of samples leading to 50 % inhibition were calculated by plotting the percentage of inhibition against the concentrations.

[5] = test system: nitric oxide production from LPS-activated macrophages; conditions: read-out: IC50 against nitric oxide production; cited from earlier work
RAW 264.7 macrophages = experiment: Cell viability of LPS-activated RAW 264.7 macrophages (MTT); assay type: cell-based, murine; conditions: Fig. 1b, at the concentration leading to effective inhibition of NO production
Description: To determine whether the observed nitric oxide inhibition was not due to cytotoxic effects, MTT assay was also performed on the macrophage cells as previously described.

[6] = Vero kidney cells, Vero cells, MTT, read-out: Cytotoxicity LC50 Vero
[7] = THP-1, read-out: Cytotoxicity LC50 THP-1
[8] = RAW264.7, read-out: Cytotoxicity LC50 RAW 264.7
[9] = human, mouse, THP-1 and RAW 264.7 cells (range over the cell lines), range over the cell lines tested (Vero, THP-1, RAW 264.7), read-out: LC50 values (range over the cell lines)
[10] = RAW264.7, RAW 264.7 cells, MTT, read-out: Cytotoxicity LC50 RAW 264.7

SMILES | CC50 [1, 6] [µg/mL] | CC50 (human monocytic THP-1; [7]) [µg/mL] | CC50 [2, 8] [µg/mL] | Amount of nitric oxide released [3] [µM] | inhibition at 6.25 µg/mL [4] [%] | inhibition at 12.5 µg/mL [4] [%] | inhibition at 25 µg/mL [4] [%] | inhibition at 50 µg/mL [4] [%] | IC50 [4] [µM] | IC50 [5] [µM] | CC50 [1, 9] [µg/mL] | CC50 (human monocytic THP-1; THP-1 cells, MTT, read-out: Cytotoxicity LC50 THP-1) [µg/mL] | CC50 [2, 10] [µg/mL] | Cytotoxicity against RAW 264.7 macrophages by MTT assay (RAW 264.7 macrophages)
C=C1[C@@]23O[C@@H]2C[C@@H](c2ccoc2)[C@]3(C)[C@@H](OC(=O)C(O)C(C)CC)[C@@H]2O[C@H]3CC(=O)O[C@]4(C)COC(=O)CC4[C@@]3(C)[C@]12C (stereo partly drawn) [Compound 3, dregeanin DM4] | 75.8 ± 1.85 (≈ 127 µM) | 84.5 ± 5.81 (≈ 141 µM) | 61.9 ± 4.14 (≈ 103 µM) | 2.93 | 30.3 ± 3.51 | 31.7 ± 5.2 | 70.7 ± 3.5 | 87 ± 8.74 | 76.3 | – | – | – | – | –
CC[C@H](C)C(=O)O[C@H]1[C@@]23O[C@]4(O)[C@@](C)([C@@H](CC(=O)OC)C(C)(C)[C@H](OC(=O)C(C)C)[C@]14O)[C@H]2CC[C@]1(C)[C@H]3CC(=O)O[C@H]1c1ccoc1 [2-hydroxyxylorumphiin F] | – | – | – | – | – | – | – | – | – | 24.5 | – | – | – | –
CC[C@H](C)C(=O)O[C@H]1C(C)(C)[C@H](CC(=O)OC)[C@@]2(C)[C@H]3CC[C@]4(C)C(=CC(=O)O[C@H]4c4ccoc4)[C@]34O[C@@]2(O)[C@@]1(O)[C@H]4OC(=O)[C@@H](C)CC [xylorumphiin I] | – | – | – | – | – | – | – | – | – | 31.3 | – | – | – | –
C=C1[C@@]2(O)C(=O)C[C@@H](c3ccoc3)[C@]2(C)[C@@H](OC(=O)C(O)C(C)CC)[C@@H]2O[C@H]3CC(=O)O[C@]4(C)COC(=O)CC4[C@@]3(C)[C@]12C (stereo partly drawn) [Compound 2, rohituka 3] | 85.2 ± 6.31 (≈ 139 µM) | 81.2 ± 4.04 (≈ 132 µM) | 65.7 ± 3.64 (≈ 107 µM) | 2.97 | 14 ± 6 | 47.3 ± 2.08 | 67 ± 4.36 | 82.7 ± 7.04 | 55.6 | – | – | – | – | –
COc1ccc(C[C@H](N)C(=O)N[C@H]2[C@@H](O)[C@H](n3cnc4c(N(C)C)ncnc43)O[C@@H]2CO)cc1 [Puromycin, reference compound] | 5.32 ± 0.9 (≈ 11.3 µM) | – | – | – | – | – | – | – | – | – | 1.15 to 5.32 (≈ 2.44 to 11.3 µM) | 0.4 ± 0.02 (≈ 0.848 µM) | 1.15 ± 0.17 (≈ 2.44 µM) | –
COc1cccc2c1C(=O)c1c(O)c3c(c(O)c1C2=O)C[C@@](O)(C(=O)CO)C[C@@H]3O[C@H]1C[C@H](N)[C@H](O)[C@H](C)O1 [Doxorubicin] | 9.35 ± 0.66 (≈ 17.2 µM) | – | – | – | – | – | – | – | – | – | 1.06 to 9.35 (≈ 1.95 to 17.2 µM) | – | 1.06 ± 0.65 (≈ 1.95 µM) | –
C=C1[C@@]23O[C@@H]2C[C@@H](c2ccoc2)[C@]3(C)[C@@H](OC(=O)C(O)C(C)CC)[C@H](C(=O)O)[C@]1(C)[C@](C)(C1CC(=O)O[C@]1(C)CO)[C@H](CC(=O)OC)OC(C)=O (stereo partly drawn) [Compound 1, trichilia lactone D5] | 89.2 ± 5 (≈ 124 µM) | 81.2 ± 6.38 (≈ 113 µM) | 23.6 ± 5.77 (≈ 32.8 µM) | – | 28 ± 6.56 | 18 ± 8.89 | 71.7 ± 6.03 | 94.3 ± 8.15 | 26.6 | – | – | – | – | slight toxic effect
